Consider one molecule from patent US11786447B2, “Conditioner composition comprising a chelant” (The Procter & Gamble Company, priority 2016, dated 2023).

This assay is described as follows: Measurement of copper on hair after shampoo/rinse-off conditioner wash cycles (ICP-OES). As to conditions: picolinic acid in the rinse-off conditioner; after 20 clarifying shampoo/rinse-off conditioner cycles. The protocol:
All testing are performed on colored hair switches (see Method of Measurement of copper on hair below) weighing approximately 4.0 grams and having a length of approximately 6 inches. The hair switches are commercially available from IHIP (International Hair Importers). Three hair switches per shampoo composition are used. An amount of […] of shampoo is spread via a syringe onto separate hair switch. That is, the dosage is 0.10 g of shampoo per g of hair. Each application consists of adding shampoo to the hair, milking for 30 seconds followed by rinsing for 30 seconds. Shampoo is then reapplied (0.1 g/g), milked for 30 seconds and rinsed for 30 seconds. Excess water is squeezed from the hair switches and left to air dry or treated with a rinse-off conditioner and/or a leave-on treatment composition. This protocol is repeated for a number of times/cycles (as indicated in the tables below, which describe the details of hair treatments).
All testing are performed on colored hair switches (see Method of Measurement of copper on hair below) weighing approximately 4.0 grams and having a length of approximately 6 inches. […]
Samples of 100 mg of hair were digested overnight with 2 ml of high purity concentrated nitric acid. […] Copper content of the hair switches was determined by inductively coupled plasma atomic spectroscopy (ICP-OES)). For each leg, 3 different samples were analyzed. […]

Molecules are shown by their SMILES.

Take `O=C(O)c1ccccn1` [picolinic acid]: the “Removal of copper from hair compared to clarifying shampoo/control rinse-off conditioner” value is “effective removal of copper from hair”.
